These results are taken from BindingDB's records for doi:10.1021/acs.jmedchem.9b00568 (University of Central Florida, 2020).

Molecules are shown by their SMILES. pIC50: −log10 of the molar value.

The experiment is described as follows: Induction of LAT1-mediated polyamine efflux in human L3.6PL cells assessed as reduction in cell viability after 48 hrs by MTS assay.

On to `CC(C)CCN1CCN([C@@H](CNCc2ccccc2)CC2CCCCC2)C[C@@H]1CC(C)C`, for which the pIC50 (commonly the IC50 on a negative log10 scale, so that one unit is a factor of ten) was 5.46.
